Assay: log P determination by HPLC on reverse-phase column (C 18), EEC-Directive 79/831 Annex V.A8
Assay type: physicochemical
Conditions: for chromatographic logP: reverse-phase HPLC column (C 18), HPLC, reverse-phase column (C 18), 43° C.
Procedure: • The log P values given in the tables and preparation examples above are determined in accordance with EEC-Directive 79/831 Annex V.A8 by HPLC (High Performance Liquid Chromatography) on a reverse-phase column (C 18). Temperature: 43° C.
The determination is carried out in the acidic range at pH 2.3 using the mobile phases 0.1% aqueous phosphoric acid and acetonitrile; linear gradient from 10% acetonitrile to 95% acetonitrile.
The LC-MS determination in the acidic range is carried out at pH 2.7 using the mobile phases 0.1% aqueous formic acid and acetonitrile (contains 0.1% formic acid); linear gradient from […] acetonitrile to 95% acetonitrile.
The LC-MS determination in the neutral range is carried out at pH 7.8 using the mobile phases 0.001 molar aqueous ammonium bicarbonate solution and acetonitrile; linear gradient from 10% acetonitrile to 95% acetonitrile.
The calibration is carried out using unbranched alkan-2-ones (with 3 to 16 carbon atoms) with known log P values (determination of the log P values by retention times using linear interpolation between two successive alkanones).

[1] = compounds of formula (I-2-a); generally isomer mixtures; those marked 1) were separated into cis and trans diastereomers
[2] = compounds of formula (I-2-b), isomer (cis, trans or α + β about 1:1), two values for α + β mixtures
[3] = HPLC reverse-phase C 18, acidic range pH 2.3, 43° C.

SMILES	logP [1]	also measured
COC1CCCC2(C1)OC(=O)C(c1c(C)cccc1Cl)=C2O (stereo not shown) [I-2-a-25]	1.92	
COC1CCCC2(C1)OC(=O)C(c1c(C)cc(C)cc1Br)=C2O (stereo not shown) [Example I-2-a-28]	2.36	
COC1CCCC2(C1)OC(=O)C(c1cc(-c3ccc(Cl)cc3)c(C)cc1C)=C2O (mixture of isomers) [Example I-2-a-2]	3.4	
COC1CCCC2(C1)OC(=O)C(c1c(C)cc(C)c(-c3ccc(Cl)cc3)c1C)=C2O (mixture of isomers) [I-2-a-30]	3.60	
COC1CCCC2(C1)OC(=O)C(c1c(C)ccc(Cl)c1C)=C2O (mixture of isomers) [Example I-2-a-46]	2.42	
COC1CCCC2(C1)OC(=O)C(c1cc(-c3cccc(Cl)c3)ccc1Cl)=C2O (stereo not shown) [Example I-2-a-34]	3.11	
COC1CCCC2(C1)OC(=O)C(c1cc(F)c(C)cc1Br)=C2O (mixture of isomers) [I-2-a-44]	2.25	
COC1CCCC2(C1)OC(=O)C(c1c(Cl)ccc(C)c1Cl)=C2O (mixture of isomers) [Example I-2-a-52]	2.23	
CO[C@H]1CCC[C@@]2(C1)OC(=O)C(c1cc(-c3ccc(Cl)cc3)c(C)cc1C)=C2OC(=O)OC(C)C [Example I-2-c-1]		chromatographic logP: 5.21
CCCCOC1CCCC2(C1)OC(=O)C(c1cc(C)c(C)cc1Br)=C2O (stereo not shown) [I-2-a-59]	3.57	
CCc1cc(Br)cc(Br)c1C1=C(O)C2(CCCC(OC)C2)OC1=O (stereo not shown) [Example I-2-a-26]	2.77	
COC1CCCC2(C1)OC(=O)C(c1cc(-c3cccc(Cl)c3)ccc1C)=C2O (stereo not shown) [Example I-2-a-33]	3.16	
COC1CCCC2(C1)OC(=O)C(c1ccc(Cl)cc1C)=C2O (single isomer, unassigned) [Example I-2-a-8]	2.11	
COC1CCCC2(C1)OC(=O)C(c1ccc(Cl)cc1C(F)(F)F)=C2O (stereo not shown) [I-2-a-24]	2.37	
COc1cc(C)cc(C)c1C1=C(OC(=O)C(C)C)C2(CCCC(OC)C2)OC1=O (stereo not shown) [Example I-2-b-6]		logP [2]: 3.75
COC1CCCC2(C1)OC(=O)C(c1ccc(Cl)cc1Br)=C2O (mixture of isomers) [Example I-2-a-36]	2.25	
CCc1cc(Br)cc(CC)c1C1=C(O)C2(CCCC(OC)C2)OC1=O (mixture of isomers) [Example I-2-a-3]	2.98	
COc1cc(C)cc(C)c1C1=C(OC(=O)OC(C)C)C2(CCCC(OC)C2)OC1=O (stereo not shown) [Example I-2-c-6]		logP [3]: 3.90
COC1CCCC2(C1)OC(=O)C(c1cc(Cl)c(Br)cc1Cl)=C2O (mixture of isomers) [I-2-a-40]	2.53	
COC1CCCC2(C1)OC(=O)C(c1cc(C)c(C)cc1Br)=C2O (stereo not shown) [Example I-2-a-9]	2.35	
COC1CCCC2(C1)OC(=O)C(c1c(C)cc(C)cc1C)=C2OC(=O)OC(C)C (stereo not shown) [Example I-2-c-3]		logP [3]: 4.17
COC1CCCC2(C1)OC(=O)C(c1cc(C)c(C)cc1C)=C2O (stereo not shown) [Example I-2-a-11]	2.21	
COC1CCCC2(C1)OC(=O)C(c1cc(Br)ccc1Br)=C2O (mixture of isomers) [I-2-a-51]	2.27	
COc1cc(C)cc(C)c1C1=C(OC(=O)OC(C)C)C2(CCCC(OC)C2)OC1=O (stereo not shown) [Example I-2-c-5]		logP [3]: 3.75

SMILES	logP [1]	also measured
COC1CCCC2(C1)OC(=O)C(c1c(C)cc(Br)cc1C)=C2O (stereo not shown) [Example I-2-a-10]	2.40	
COC1CCCC2(C1)OC(=O)C(c1ccccc1C)=C2O (stereo not shown) [Example I-2-a-7]	1.81	
CCCCOC1CCCC2(C1)OC(=O)C(c1ccc(C)cc1Cl)=C2O (stereo not shown) [I-2-a-56]	3.32	
COC1CCCC2(C1)OC(=O)C(c1c(C)cc(C)c(F)c1C)=C2O (stereo not shown) [Example I-2-a-54]	2.45	
COC1CCCC2(C1)OC(=O)C(c1c(C)cc(C)cc1C)=C2OC(=O)C(C)C (stereo not shown) [Example I-2-b-4]		logP [2]: 4.15
CCCCOC1CCCC2(C1)OC(=O)C(c1c(C)cc(C)c(C)c1C)=C2O (stereo not shown) [I-2-a-61]	3.76	
COC1CCCC2(C1)OC(=O)C(c1c(C)cc(Cl)cc1Cl)=C2O (stereo not shown) [Example I-2-a-20]	2.41	
COC1CCCC2(C1)OC(=O)C(c1c(C)cc(Br)c(C)c1Br)=C2O (mixture of isomers) [Example I-2-a-47]	2.78	
CCc1cc(Br)cc(C)c1C1=C(O)C2(CCCC(OC)C2)OC1=O (stereo not shown) [Example I-2-a-13]	2.74	
COC1CCCC2(C1)OC(=O)C(c1ccc(Br)cc1Cl)=C2O (mixture of isomers) [Example I-2-a-37]	2.31	
CCc1cc(Cl)c(C2=C(O)C3(CCCC(OC)C3)OC2=O)c(Br)c1 (stereo not shown) [Example I-2-a-29]	2.62	
COC1CCCC2(C1)OC(=O)C(c1c(C)cc(Cl)cc1Br)=C2O (mixture of isomers) [Example I-2-a-4]	2.46	
COC1CCCC2(C1)OC(=O)C(c1ccc(C)cc1Cl)=C2O (stereo not shown) [Example I-2-a-22]	2.13	
COC1CCCC2(C1)OC(=O)C(c1c(Br)cc(C)cc1Br)=C2O (stereo not shown) [I-2-a-19]	2.51	
COC1CCCC2(C1)OC(=O)C(c1cc(-c3ccc(Cl)cc3)c(C)cc1C)=C2OC(=O)C(C)C (stereo not shown) [Example I-2-b-2]		logP [2]: 5.25
CCOC1CCCC2(C1)OC(=O)C(c1c(C)cc(-c3ccc(Cl)cc3)cc1CC)=C2O (stereo not shown) [Example I-2-a-17]	4.19	
CO[C@H]1CCC[C@]2(C1)OC(=O)C(c1cc(-c3ccc(Cl)cc3)c(C)cc1C)=C2OC(=O)C(C)C [Example I-2-b-1]		chromatographic logP: 5.37
CCCCOC1CCCC2(C1)OC(=O)C(c1c(C)cc(C)cc1C)=C2O (stereo not shown) [Example I-2-a-1]		chromatographic logP: 3.57
COC1CCCC2(C1)OC(=O)C(c1c(Cl)cc(C)cc1Br)=C2O (stereo not shown) [Example I-2-a-5]	2.40	
COC1CCCC2(C1)OC(=O)C(c1cc(-c3ccc(Cl)cc3)ccc1Cl)=C2O (stereo not shown) [Example I-2-a-31]	3.14	
CCCCOC1CCCC2(C1)OC(=O)C(c1c(C)cc(Br)cc1CC)=C2O (stereo not shown) [I-2-a-63]	3.99	
COc1ccc(C2=C(O)C3(CCCC(OC)C3)OC2=O)c(C)c1 (mixture of isomers) [Example I-2-a-50]	2.21	
COC1CCCC2(C1)OC(=O)C(c1cc(Cl)c(C)cc1Cl)=C2O (mixture of isomers) [I-2-a-48]	2.47	
COC1CCCC2(C1)OC(=O)C(c1c(C)cc(C)cc1Cl)=C2O (stereo not shown) [Example I-2-a-27]	2.31	

SMILES	logP [1]	also measured
COC1CCCC2(C1)OC(=O)C(c1c(C)cc(C)cc1C)=C2O (single isomer, unassigned) [Example I-2-a-14]	2.31^1)	
COC1CCCC2(C1)OC(=O)C(c1cc(C)c(Cl)cc1C)=C2O (mixture of isomers) [I-2-a-43]	2.47	
CCCCOC1CCCC2(C1)OC(=O)C(c1ccccc1C)=C2O (stereo not shown) [I-2-a-57]	3.03	
COC1CCCC2(C1)OC(=O)C(c1cc(Br)ccc1C)=C2O (stereo not shown) [I-2-a-23]	2.30	
COC1CCCC2(C1)OC(=O)C(c1cc(C)ccc1C)=C2O (mixture of isomers) [Example I-2-a-35]	2.15	
CCCCOC1CCCC2(C1)OC(=O)C(c1c(CC)cc(Br)cc1CC)=C2O (stereo not shown) [I-2-a-55]	4.24	
COC1CCCC2(C1)OC(=O)C(c1c(C)cc(C)c(C)c1C)=C2O (stereo not shown) [Example I-2-a-12]	2.50	
CCCCOC1CCCC2(C1)OC(=O)C(c1cc(C)ccc1C)=C2O (stereo not shown) [I-2-a-62]	3.36	
COC1CCCC2(C1)OC(=O)C(c1cc(-c3ccc(Cl)cc3)ccc1C)=C2O (single isomer, unassigned) [Example I-2-a-32]	3.19^1)	
COC1CCCC2(C1)OC(=O)C(c1ccc(Cl)cc1C)=C2O (single isomer, unassigned) [Example I-2-a-6]	2.19	
COC1CCCC2(C1)OC(=O)C(c1c(Cl)cc(C)cc1Cl)=C2O (stereo not shown) [Example I-2-a-21]	2.27	
COC1CCCC2(C1)OC(=O)C(c1cc(C)ccc1Br)=C2O (mixture of isomers) [Example I-2-a-49]	2.16	
COC1CCCC2(C1)OC(=O)C(c1c(C)cc(C)c(Br)c1C)=C2O (mixture of isomers) [I-2-a-41]	2.70	
COC1CCCC2(C1)OC(=O)C(c1cc(-c3ccc(Cl)cc3)c(C)cc1C)=C2OC(=O)OC(C)C (stereo not shown) [Example I-2-c-2]		logP [3]: 5.32
COc1cc(C)cc(C)c1C1=C(OC(=O)C(C)C)C2(CCCC(OC)C2)OC1=O (stereo not shown) [Example I-2-b-5]		logP [2]: 3.90
COC1CCCC2(C1)OC(=O)C(c1c(Cl)cccc1Cl)=C2O (stereo not shown) [Example I-2-a-15]	1.93	
COC1CCCC2(C1)OC(=O)C(c1c(C)cc(C)cc1C)=C2OC(=O)OC(C)C (stereo not shown) [Example I-2-c-4]		logP [3]: 4.34
COC1CCCC2(C1)OC(=O)C(c1ccccc1Cl)=C2O (mixture of isomers) [I-2-a-38]	1.86	
CCc1cc(C)cc(Br)c1CC(=O)NC1(C(=O)OC)CCCC(OCCOC)C1 (single isomer, unassigned) [II-28]		log P (compounds of formula (II), two values where an α/β isomer mixture is given): log P 3.64
COC1CCCC2(C1)OC(=O)C(c1c(C)cc(C)cc1C)=C2OC(=O)C(C)C (stereo not shown) [Example I-2-b-3]		logP [2]: 4.32
COC1CCCC2(C1)OC(=O)C(c1c(Cl)cc(Br)c(C)c1Cl)=C2O (stereo not shown) [I-2-a-53]	2.70	
CCCCOC1CCCC2(C1)OC(=O)C(c1c(C)cc(C)cc1Cl)=C2O (stereo not shown) [I-2-a-60]	3.49	
